Measured values: US11096952B2, “Chemicals and methods to prevent and treat TGF-beta mediated activation of fibroblasts to reduce and treat cancer and fibrosis” (Board of Supervisors of Louisiana State University and …, priority 2016, dated 2021)

Key:
[1] = test system: TGF-β-induced fibronectin expression; assay: Western blot of TGF-β-induced fibronectin expression in WPMY-1 fibroblasts; assay type: cell-based, human; conditions: for TGF-β-induced fibronectin expression, intracellular Ca2+ modulators (western blot): WPMY-1, 2.5-10 μM, 5 ng/ml TGF-β, 24 hours
Description: (§1) Inhibitors of CAF Differentiation. A. WPMY-1 cells were plated into each well of 4-chamber slice (for IF), or (C) in a 24 well plate (for western blot analysis). After cell attachment, vehicle or 5 ng/ml TGF-β was added into each well and incubated for 24 h in a 37° C. in a humidified incubator containing 5% CO2. For fluorescence detection (A), cells were fixed and stained with antibody detecting fibronectin and/or stained with DAPI to detect the nuclei. Protein was extracted with boiling Lamaelli buffer for WB (C) and blots were probed with anti-fibronectin or anti-tubulin antibodies. Fibronectin fluorescence (D and E) was measured in the presence or absence of TGF-β in 8 well replicates as follows. Cells were conditioned in serum-free DMEM for 48 hr prior to the addition of TGF-β. Images were acquired using a Cellomics platform with a mask shown in the schematic of (B). The mean of the total fluorescence intensity in each well was calculated from 300 cells per image field and up to 15 fields from each well for fibronectin. The fold change in fibronectin expression per acquired image (nuclei) is shown (Mean+/−SD).
Panel A1 is the control, Panel A2 is the TGF-β treated wells and Panel A3 is TGF-β plus PsA at 5 micromolar. Images were captured using the Cellomics imaging system.
Representative blots are shown with two exposures of fibronectin to account for strong signal intensity. n=3.
FIGS. 9A-9B: Increases in intracellular Ca^2+ prevent TGF-β-induced fibronectin expression. (A) WPMY-1 fibroblasts were treated with 2.5 μM thapsigargin±5 ng/ml TGF-β for 24 hours. (B) WPMY-1 fibroblasts were treated with 2.5-10 μM 3′,4′-dichlorobenzamil hydrochloride (DCB)±5 ng/ml TGF-β for 24 hours. Cell lysates were analyzed by western blot for fibronectin expression.
Because of the observed low nanomolar effective concentration of the cardiac glycosides, the inventors hypothesized that the cardiac glycosides may be acting by binding to their high affinity target, the Na^+/K^+ ATPase, and that action through the ATPase is the mechanism by which the cardiac glycosides are able to block TGF-β-induced fibronectin expression. It is well documented that inhibition of the Na^+/K^+ ATPase by digoxin leads to increases in intracellular Ca^2+ by preventing Ca^2+ efflux through the Na^+/Ca^2+ exchanger. In order to determine if increased intracellular Ca^2+ is sufficient to prevent TGF-β-induced fibronectin expression, the inventors utilized two compounds that increase intracellular Ca^2+ concentrations. 3′,4′-dichlorobenzamil hydrochloride (DCB) inhibits the Na^+/Ca^2+ exchanger, Na^+ transport, and sarcoplasmic reticulum Ca^2+ release channels. Thapsigargin inhibits the endoplasmic reticulum Ca^+ ATPase, preventing storage of Ca^2+ in the endoplasmic reticulurn, causing an accumulation in the cytoplasm. Cells were treated with 2.5-10 μM of DCB or thapsigargin±TGF-β for 24 hours.

[2] = test system: activated fibroblast phenotype; conditions: MRC-5 pre-activated with 10 ng/mL TGF-β 24 hours, then 24 hours treatment
Description: (§2) FIGS. 13A-13C: MRC-5 lung fibroblast cells were serum-starved 24 hours then treated with or without 10 ng/mL TGF-β for 24 hours (T-24 hr). […] FN: fibronectin, YAP: yes-activated protein, TAZ: transcriptional coactivator with PDZ-binding motif, and SMA(ACTA2): smooth muscle actin. Representative western blot is shown (n=2). […] Cells were fixed in −20C methanol for 15 minutes and immunolabeled for fibronectin. Cellomics arrayscan imaging was performed and staining intensity was quantified and analyzed for fibronectin expression on a per cell basis.
(§3) Turning now to FIGS. 13A-13E, in a clinical setting, it would be advantageous for the efficacy of the therapeutics that the activated fibroblasts be reversed to a quiescent state upon treatment. […] To test the combinations, the inventors obtained quantitative analysis of fibronectin staining in fibroblasts upon treatment with TGF-β in the presence or absence of drug combinations.

[3] = test system: TGF-β-induced fibronectin; conditions: MRC-5, 10 ng/mL TGF-β, 24 hours, low concentrations alone or in combination
Description: as §2, §3

[4] = test system: activated fibroblast phenotype (fibronectin, YAP, TAZ, smooth muscle actin); assay: Western blot of activated fibroblast markers (FN, YAP, TAZ, SMA) in MRC-5 lung fibroblasts induced by growth factors; assay type: cell-based, human
Description: FIG. 10C: MRC-5 lung fibroblast cells were serum-starved 24 hours then treated with 10 ng/mL TGF-β in serum-free media for 24 hours with or without verteporfin at the indicated concentration. FN: fibronectin, YAP: yes-activated protein, TAZ: transcriptional coactivator with PDZ-binding motif, and SMA(ACTA2): smooth muscle actin. Representative western blot is shown (n=3).
FIG. […] T.F.8: combination TGF, FGF, IL8. […] FN: fibronectin, YAP: yes-activated protein, TAZ: transcriptional coactivator with PDZ-binding motif, and SMA(ACTA2): smooth muscle actin. Representative western blot is shown (n=2).

WPMY-1 cells = assay: Viability / metabolic activity assay on WPMY-1 cells; conditions: WPMY-1, compound at its IC50, up to 48 hours, 1% FBS DMEM, vs DMSO control
Description: Metabolically viable cells (indicated by bar; left y-axis) are indicated by fluorescent intensity (560/590 nm).
Cardiac glycosides have been shown previously to inhibit cell growth in a variety of cell types, in order to determine whether cardiac glycosides inhibited TGE-β-induced fibronectin expression by affecting metabolic activity, viability assays were performed on WPMY-1 cells over 48 hours in 1% FBS DMEM.

[5] = test system: TGF-β-induced fibronectin; assay: High content imaging (Cellomics) screen for inhibitors of fibronectin induction by TGF-beta in WPMY-1 cells; assay type: cell-based, human
Description: as §1, with “The fold change in fibronectin expression per acquired image (nuclei) is shown (Mean+/−SD).” left out
FIGS. 4A-4H: Dose response for identified hits. As shown in the four panels of FIG. 4A, fibronectin fluorescence was measured from images acquired following a Cellomics scan using WPMY-1 cells with concentrations of hits over a range of 0-100 uM. […] Results were expressed as percent inhibition caused by cells treated with TGF-β alone and without testing compound, which was considered as 100%. […]
FIGS. 14-15 show Table I—Prestwick Library and Table II—NIH Library chemicals respectively. […] A “hit” was defined as a compound causing at least 50% reduction of “Mean_RingTotal Intensity”, which is the fluorescence intensity within the defined ring (see FIG. 2) surrounding nucleus of each cell, summed for 300 cells per image and 15 fields per image. The solvent, 0.1% Dimethyl Sulfoxide (DMSO), with and without TGF-beta served as an internal control on each plate to normalize day-to-day and plate-to-plate variation with DMSO alone as low fluorescence (0%) and TGF-β treated as maximal fluorescence (100%). […]

C/C=C(/C)C(=O)O[C@H]1C(C)=C2[C@H]([C@@H]1OC(=O)CCCCCCC)[C@@](C)(OC(C)=O)C[C@H](OC(=O)CCC)[C@@]1(O)[C@H]2OC(=O)[C@@]1(C)O [thapsigargin]
TGF-β-induced fibronectin expression, intracellular Ca2+ modulators (western blot) [1]: able to prevent TGF-β-induced fibronectin expression in a dose-dependent manner

Cc1cc(/C=C/c2ccc3cc(N(C)C)ccc3[n+]2C)c(C)n1-c1ccccc1 [pyrvinium]
reversal of activated fibroblast phenotype (fibronectin, TAZ, smooth muscle actin) [2]: revert fibroblasts to the quiescent state
fibronectin staining intensity per cell (Cellomics arrayscan) [3]: the levels of fibronectin are reduced
activated fibroblast phenotype induced by TGF-β and FGF (fibronectin, YAP, TAZ, smooth muscle actin) ([4]; MRC-5, 10 ng/mL TGF-β and 20 ng/ml FGF, 24 hours): able to prevent the activated fibroblast phenotype
activated fibroblast phenotype upon TGF-β and FGF, compared with nintedanib ([4]; MRC-5, 10 ng/mL TGF-β and 20 ng/ml FGF, 24 hours, nintedanib 200 nM): able to block the activated fibroblast phenotype better than nintedanib
fibroblast activation from a combination of growth factors (TGF, FGF, IL8) ([4]; MRC-5, 10 ng/mL TGF-β, 20 ng/mL FGF, 20 ng/mL IL-8, digoxin 250 nM, pyrvinium 500 nM vs pirfenidone 500 μm, nintedanib 250 nM): able to block fibroblast activation from a combination of growth factors better than pirfenidone or nintedanib

C[C@@H]1O[C@@H](O[C@H]2C[C@@H](O)[C@]3(CO)[C@H]4[C@H](O)C[C@]5(C)[C@@H](C6=CC(=O)OC6)CC[C@]5(O)[C@@H]4CC[C@]3(O)C2)[C@H](O)[C@H](O)[C@H]1O [ouabain]
cell viability / metabolic activity (WPMY-1 cells): no effect on cell viability

CC(=O)OCOC(=O)CN(CC(=O)OCOC(C)=O)c1ccccc1OCCOc1ccccc1N(CC(=O)OCOC(C)=O)CC(=O)OCOC(C)=O [BAPTA-AM, Glycine, N,N′-[1,2-ethanediylbis(oxy-2,1-phenylene)]bis[N-[2-[(acetyloxy)methoxy]-2-oxoethyl]]-, bis[(acetyloxy)methyl] ester]
TGF-β-induced fibronectin expression, intracellular Ca2+ modulators (western blot) [1]: no effect on TGF-β-induced fibronectin expression

Cl.NC(=NCc1ccc(Cl)c(Cl)c1)NC(=O)c1nc(Cl)c(N)nc1N [DCB, 3′,4′-dichlorobenzamil hydrochloride]
TGF-β-induced fibronectin expression, intracellular Ca2+ modulators (western blot) [1]: able to prevent TGF-β-induced fibronectin expression in a dose-dependent manner

COC(=O)c1ccc2c(c1)NC(=O)/C2=C(\Nc1ccc(N(C)C(=O)CN2CCN(C)CC2)cc1)c1ccccc1 [nintedanib]
FGF signaling (TAZ upregulation) ([4]; MRC-5, 10 ng/mL FGF, nintedanib 200 nM, 24 hours): blocks FGF signaling
induction of activated fibroblast markers by TGF-β ([4]; MRC-5, 10 ng/mL TGF-β, nintedanib 200 nM, 24 hours): does not bock induction by TGF-β

C[C@@H]1O[C@@H](O[C@@H]2C=C3CC[C@@H]4[C@H](CC[C@]5(C)[C@@H](c6ccc(=O)oc6)CC[C@]45O)[C@@]3(C)CC2)[C@H](O)[C@H](O)[C@H]1O [Proscillaridin A]
inhibition of fibronectin induction, western blot ([1]; WPMY-1, TGF-β, dose range of PsA): inhibits induction of fibronectin even a low nanomolar concentrations
IC50 / potency for inhibition of TGF-β-induced fibronectin (dose response) ([5]; WPMY-1, 0-100 uM, TGF-β 24 hour): lowest IC50
inhibition of fibronectin induction, Cellomics based image analysis ([5]; WPMY-1, TGF-β plus PsA at 5 micromolar): potent inhibitor of fibronectin induction
cell viability / metabolic activity (WPMY-1 cells): toxic to cells
cell viability / metabolic activity (WPMY-1 cells; listed as proscillaridin A): decreased metabolic activity

CC(=O)O[C@H]1C[C@H](O[C@H]2[C@@H](O)C[C@H](O[C@H]3[C@@H](O)C[C@H](O[C@H]4CC[C@@]5(C)[C@H](CC[C@@H]6[C@@H]5C[C@@H](O)[C@]5(C)[C@@H](C7=CC(=O)OC7)CC[C@]65O)C4)O[C@@H]3C)O[C@@H]2C)O[C@H](C)[C@H]1O[C@@H]1O[C@H](CO)[C@@H](O)[C@H](O)[C@H]1O [lanatoside C]
cell viability / metabolic activity (WPMY-1 cells): no effect on cell viability

verteporfin
TAZ levels ([4]; MRC-5, 10 ng/mL TGF-β, 24 hours): not reduced
induction of fibronectin, YAP, TAZ, smooth muscle actin by TGF-β ([4]; MRC-5, 10 ng/mL TGF-β, serum-free, 24 hours, dose escalation): represses TGF-β induced fibronectin and smooth muscle actin expression
